Reference: patent US11084829B2, “Ubiquitin-specific-processing protease 7 (USP7) modulators and uses thereof” (RAPT THERAPEUTICS, INC., priority 2018, dated 2021)

Assays:
Assay type in all cases: cell-based
[1] = test system: H526 cells; assay: Apoptosis (caspase-3/7 induction, sub-G1 population) in H526 cells; settings: starting 72 hours post treatment, data not shown
Experimental: (§1) For Western blotting, compound-treated cells were lysed in RIPA lysis buffer (ThermoScientific) containing Halt Protease and Phosphatase Inhibitor Cocktail (Life Technologies). Lysates were quantified using the BCA protein assay (Pierce) and equivalent protein was separated by SDS-PAGE (4-12%, ThermoScientific). Following electrophoresis, proteins were transferred to PVDF membranes. […] Caspase activation assays were performed on compound-treated cells using the Caspase-Glo 3/7 Assay Kit (Promega) according to the manufacturer's protocol, and luminescence was measured using a CLARIOstar plate reader (BMG LABTECH). […] Data were collected using FACSCanto (Becton Dickinson) and Attune (Thermo Fisher Scientific) flow cytometers and analyzed with FlowJo software (FlowJo LLC). […] Lysates were quantified using the BCA protein assay (Pierce) and equivalent protein was used in the PathScan Phospho-S6 Ribosomal Protein (Ser235/236) Sandwich ELISA Kit (Cell Signaling) according to the manufacturer's protocol. Absorbance was measured using the Spectramax 300 plate reader (Molecular Devices). […]

[2] = test system: H526 cells; assay: RNASeq transcriptomic profiling and gene set enrichment in H526 cells; settings: treatment for 24 or 48 hours
Experimental: RNA was extracted from approximately 1 million cells using the Allprep DNA/RNA Mini Kit (Qiagen). Whole transcriptome non-stranded libraries were prepared using the TruSeq RNA Library Prep Kit v2 (Illumina). Sequencing was performed on Illumina NovaSeq using paired-end mode, 200 cycles, targeting 40 million reads per sample, by MedGenome. Sequencing results were processed on the Seven Bridges Genomics platform through Kallisto Quant (version 0.43.1) aligning to the gencode.v27 transcript reference. Aligned reads were imported by tximport (version 1.10.1) and Treatment fold change and significance were calculated with DESeq2 (version 1.22.2) with an experimental design of “˜Time+Treatment+Time: Treatment” on genes with at least 10 counts. Shrunk log 2 fold changes (lfcShrink function, type=“apeglm”) were used for significance calculation.
In order to identify pathways impacted by USP7 inhibition, RNASeq was used to profile transcriptomic changes in H526 cells following treatment with the USP7 inhibitor 3-((7-(5-chloro-3-methyl-2-(((R)-morpholin-2-yl)methyl)phenyl)thieno[3,2-b]pyridin-2-yl)methyl)-6,6-dimethyl-3-azabicyclo[3.1.0]hexane-2,4-dione for 24 or 48 hours. […] Measurement of transcriptional changes prior to 72 hours should thus uncover programs triggered by USP7 inhibition without being confounded by apoptosis pathways themselves. […]

[3] = test system: H526 cells; assay: Compound synergy (Bliss independence) in H526 cells
Experimental: (§2) CHP-134 was purchased from Sigma Aldrich, MOLM-13 was purchased from AddexBio, and NB-1 was purchased from Sekisui XenoTech. All other cell lines were purchased from American Type Culture Collection. For all cell lines, identity was confirmed by short tandem repeat profiling and culturing was performed in recommended growth medium. For studies evaluating cellular effects of compound treatment, 250 to 2,000 cells in 40 μl of recommended medium were seeded per well in 384-well plates (Corning 3764). DMSO-solubilized compounds were added in duplicate in a two-fold dilution series using a D300e Digital Dispenser (Hewlett-Packard). Following a 5-day incubation, cell viability was measured using CellTiter-Glo (Promega) following the manufacturer's instructions. Luminescence was measured using a CLARIOstar plate reader (BMG LABTECH) and normalized to that of DMSO-treated cells. IC50 values were determined by non-linear regression using a 4-parameter fit in Prism (GraphPad Software). Inhibitor profiling of the 430-cell line panel was conducted and analyzed similarly.
Cancer Cell Line Encyclopedia (CCLE) mutation data was downloaded from https://data.broadinstitute.org/ccleiCCLE_DepMap_18Q2_maf_20180502.txt.gz. Genes were considered mutated if they were annotated in CCLE as containing variants that were either a TCGA Hotspot, a COSMIC Hotspot, or a deleterious variant. Genes with at least 6 mutated cell lines out of the 397 cell lines that overlapped with the cell line screening panel were tested one gene at a time in linear models or coordinately in multivariate models where the fraction cell signal at 1 μM compound was the dependent variable. For compound synergy analysis, a Bliss-independence model was used. Briefly, the products of the fraction of maximal cell signal for each of the tested compounds alone were calculated as the expected signal in the absence of any compound interaction. The log2 of the ratio of expected:observed signal was calculated to indicate synergy (positive) or interference (negative) interactions. For in vivo studies, interval-censored survival analysis was performed using the icenReg package (reference: https://cran.r-project.org/web/packages/icenReg/citation.html), using the “ic_par” parametric regression model with proportional hazards and a Weibull distribution.
Tests were conducted to determine whether the USP7 inhibitor 3-((7-(5-chloro-3-methyl-2-(((R)-morpholin-2-yl)methyl)phenyl)thieno[3,2-b]pyridin-2-yl)methyl)-6,6-dimethyl-3-azabicyclo[3.1.0]hexane-2,4-dione potentiates the activity of DNA-damaging agents commonly used for small cell lung cancer chemotherapy, namely carboplatin, doxorubicin, and the PARP inhibitor olaparib.
The effect of combining the USP7 inhibitor 3-((7-(5-chloro-3-methyl-2-(((R)-morpholin-2-yl)methyl)phenyl)thieno[3,2-b]pyridin-2-yl)methyl)-6,6-dimethyl-3-azabicyclo[3.1.0]hexane-2,4-dione with the PIM kinase inhibitor AZD 1208, the PI3K inhibitor pictilisib and the PI3K inhibitor taselisib in the p53 mutant H526 cell line was tested. […] Both PIM and PI3K promote the activity of mammalian target of rapamycin (mTOR), which regulates cellular protein translation and controls phosphorylation of S6 at the Ser235/236 site.

[4] = test system: phosphorylated S6 (Ser235/236); assay: Phospho-S6 ELISA; settings: treatment with the compound alone
Experimental: as §1

[5] = test system: phosphorylated histone H2AX (γ-H2AX); assay: γ-H2AX measurement (flow cytometry)
Experimental: as §1

[6] = test system: HCC1937; assay: Cell viability (CellTiter-Glo), HCC1937; settings: Homo sapiens; HCC1937, breast, triple-negative, BRCA1 mutant, p53-mutant
Experimental: as §2
(§3) In addition to the many p53 wild-type cell lines in the cell line panel that were sensitive to USP7 inhibition, a subset of p53 mutant cell lines that were inhibited by our USP7 inhibitors were identified and are shown in Table 5.

[7] = test system: NCI-H929; assay: Cell viability (CellTiter-Glo), NCI-H929; settings: Homo sapiens; NCI-H929, MM, p53 wild-type
Experimental: as §2
(§4) USP7 inhibition by the compounds of Examples 31 and 124 reduced the viability of several p53-wild type blood cancer cell lines, including M07e, OCI-AML5 and MOLM13, in vitro as shown in the following Table 3. Idasanutlin was used as a positive control, and as expected these cell lines were also sensitive to this compound.

[8] = test system: HCC1806; assay: Cell viability (CellTiter-Glo), HCC1806; settings: Homo sapiens; HCC1806, breast, triple-negative, p53-mutant
Experimental: as §2, §3

[9] = test system: LA-N-2; assay: Cell viability (CellTiter-Glo), LA-N-2; settings: LA-N-2, neuroblastoma, MYCN-amplified, p53-mutant
Experimental: as §2, §3

[10] = test system: MHCC97-H; assay: Cell viability (CellTiter-Glo), MHCC97-H; settings: Homo sapiens, MHCC97H, hepatocellular carcinoma, p53-mutant
Experimental: as §2, §3

[11] = test system: HUH-7; assay: Cell viability (CellTiter-Glo), HUH-7; settings: Homo sapiens; HUH-7, hepatocellular carcinoma, p53-mutant
Experimental: as §2, §3

[12] = test system: JJN-3; assay: Cell viability (CellTiter-Glo), JJN-3; settings: Homo sapiens; JJN-3, multiple myeloma, p53-mutant
Experimental: as §2, §3

[13] = test system: MOLM13; assay: Cell viability (CellTiter-Glo), MOLM13; settings: Homo sapiens, MOLM-13; MOLM13, AML, p53 wild-type
Experimental: as §2, §4

[14] = test system: MOLP8; assay: Cell viability (CellTiter-Glo), MOLP8; settings: Homo sapiens, MOLP-8; MOLP8, MM, p53 wild-type
Experimental: as §2, §4

[15] = test system: NB-1; assay: Cell viability (CellTiter-Glo), NB-1; settings: Homo sapiens, NB1; NB-1, neuroblastoma, MYCN amplified, p53 wild-type
Experimental: as §2
(§5) USP7 has been reported to stabilize MYCN (also referred to as MYCN proto-oncogene, a gene that is a member of the MYC family which is over-expressed in a variety of tumors). Since MYCN amplification is an established driver mutation in neuroblastoma, the effect of USP7 inhibition on a panel of p53 wild-type, MYCN- or MYC-amplified neuroblastoma cell lines was tested. The USP7 inhibitors of Examples 31 and 124 reduced viability of all three MYCN-amplified and two MYC-amplified neuroblastoma cell lines tested as shown in Table 4. Idasanutlin was used as a positive control, and as expected these cell lines were also sensitive to this compound.

[16] = test system: SK-N-DZ; assay: Cell viability (CellTiter-Glo), SK-N-DZ; settings: Homo sapiens, neuroblastoma, MYCN-amplified, p53-mutant
Experimental: as §2, §3

[17] = test system: CHP-134; assay: Cell viability (CellTiter-Glo), CHP-134; settings: Homo sapiens; CHP-134, neuroblastoma, MYCN amplified, p53 wild-type
Experimental: as §2, §5

[18] = test system: MM.1S; assay: Cell viability (CellTiter-Glo), MM.1S; settings: Homo sapiens, MM1.S, p53 wild-type
Experimental: as §2, §4

[19] = test system: NCI-H820; assay: Cell viability (CellTiter-Glo), NCI-H820; settings: NCI-H820, lung, papillary adenocarcinoma, p53-mutant
Experimental: as §2, §3

[20] = test system: NCI-N87; assay: Cell viability (CellTiter-Glo), NCI-N87; settings: Homo sapiens; NCI-N87, gastric, p53-mutant
Experimental: as §2, §3

[21] = test system: M07e; assay: Cell viability (CellTiter-Glo), M07e; settings: M-07e, AML, p53 wild-type
Experimental: as §2, §4

[22] = test system: SK-N-SH; assay: Cell viability (CellTiter-Glo), SK-N-SH; settings: Homo sapiens, neuroblastoma, MYC amplified, p53 wild-type
Experimental: as §2
(§6) USP7 has been reported to stabilize MYCN (also referred to as MYCN proto-oncogene, a gene that is a member of the MYC family which is over-expressed in a variety of tumors). […]

[23] = test system: EOL-1; assay: Cell viability (CellTiter-Glo), EOL-1; settings: Homo sapiens, EOL1; EOL-1, AML, p53 wild-type
Experimental: as §2, §4

[24] = test system: SH-SY5Y; assay: Cell viability (CellTiter-Glo), SH-SY5Y; settings: Homo sapiens, neuroblastoma, MYC amplified, p53 wild-type
Experimental: as §2, §5

[25] = test system: IMR-32; assay: Cell viability (CellTiter-Glo), IMR-32; settings: Homo sapiens; IMR-32, neuroblastoma, MYCN amplified, p53 wild-type
Experimental: as §2, §6

[26] = test system: OCI-AML5; assay: Cell viability (CellTiter-Glo), OCI-AML5; settings: Homo sapiens, OCI-AML-5, p53 wild-type
Experimental: as §2, §4

[27] = test system: EBC-1; assay: Cell viability (CellTiter-Glo), EBC-1; settings: Homo sapiens; EBC-1, lung, squamous cell carcinoma, p53-mutant
Experimental: as §2, §3

[28] = test system: H526; assay: Cell viability (CellTiter-Glo), H526
Experimental: as §2, §3
The effect of pharmacological inhibition of USP7 on the viability of the p53 mutant small cell lung cancer cell line, H526 was further evaluated. […] In contrast, idasanutlin, whose inhibitory effect is dependent on a functional p53 pathway, had no effect.

[29] = test system: NCI-H2009; assay: Cell viability (CellTiter-Glo), NCI-H2009; settings: Homo sapiens; NCI-H2009, lung, adenocarcinoma, p53-mutant
Experimental: as §2, §3

Cc1cc(Cl)cc(-c2ccnc3cc(CN4C(=O)C5C(C4=O)C5(C)C)sc23)c1C[C@@H]1CNCCO1 (stereo partly drawn) [3-((7-(5-chloro-3-methyl-2-(((R)-morpholin-2-yl)methyl)phenyl)thieno[3,2-b]pyridin-2-yl)methyl)-6,6-dimethyl-3-azabicyclo[3.1.0]hexane-2,4-dione]
apoptosis (caspase-3/7 induction, sub-G1 population) [1]: induced apoptosis in H526 cells in a dose-dependent manner | transcriptomic changes (RNASeq) [2]: upregulation of a large number of genes normally silenced by the polycomb repressive complex 2 (PRC2) | synergy with carboplatin ([3]; combination with carboplatin): modest synergy | synergy with doxorubicin ([3]; combination with doxorubicin): modest synergy | synergy with olaparib ([3]; combination with the PARP inhibitor olaparib): modest synergy | synergy when dosed with itself ([3]; compound dosed with itself (control)): no synergy was observed | synergy with pictilisib ([3]; p53 mutant, combination with the PI3K inhibitor pictilisib): strongly synergized | synergy with taselisib ([3]; p53 mutant, combination with the PI3K inhibitor taselisib): strongly synergized | synergy with AZD 1208 ([3]; p53 mutant, combination with the PIM kinase inhibitor AZD 1208): strongly synergized | levels of phosphorylated S6 (Ser235/236) [4]: decreased levels of phosphorylated S6 (Ser235/236) | levels of phosphorylated histone H2AX (γ-H2AX) ([5]; USP7 inhibitor alone): did not increase levels of phosphorylated histone H2AX (γ-H2AX) | levels of γ-H2AX ([5]; combination of the USP7 inhibitor and carboplatin): increased γ-H2AX

COc1cc(C(=O)O)ccc1NC(=O)[C@@H]1N[C@@H](CC(C)(C)C)[C@](C#N)(c2ccc(Cl)cc2F)[C@H]1c1cccc(Cl)c1F [Idasanutlin, reference compound]
CC50 [6]: 7.1 µM | CC50 [7]: 0.2 µM | CC50 [8]: 7.5 µM | CC50 [9]: 5.3 µM | CC50 [10]: > 25 µM | CC50 [11]: > 25 µM | CC50 [12]: > 25 µM | CC50 [13]: 0.02 µM | CC50 [14]: 0.3 µM | CC50 [15]: 0.1 µM | CC50 [16]: > 12.5 µM | CC50 [17]: 0.01 µM | CC50 [18]: 0.02 µM | CC50 [19]: 9.7 µM | CC50 [20]: 8.6 µM | CC50 [21]: 0.03 µM | CC50 [22]: 0.2 µM | CC50 [23]: 0.05 µM | CC50 [24]: 0.1 to 0.5 µM | CC50 [25]: 0.24 µM | CC50 [26]: 0.04 µM | CC50 [27]: 16.2 µM | effect on viability of H526 ([28]; H526, p53 mutant small cell lung cancer, in vitro): had no effect | CC50 ([28]; Homo sapiens, NCI-H526, H526, lung, small cell, p53-mutant, read-out: CC50): 6.5 µM | CC50 [29]: > 25 µM
